# Measurements reported in the supplement of paper PMC10307832.
# How the values were obtained:
# Assay in all cases: relative viability (nuclei count vs DMSO), 5 days (fraction); higher = more cells survive
# HOP-62 = system: HOP-62
# Outline: (§1)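 Relative viability divides the nuclei count in treated wells by that in vehicle wells. Lung cancer cell lines were seeded in 1536-well plates, dosed by pin tool the next day, and fixed and stained after 5 days in one step with final 0.05% Triton X-100, 1% formaldehyde and 1 ug/ml Hoechst. Dosing was a single drug or a fixed anchor-drug dose plus five library-drug doses (not always all listed) in √10 steps, and values are medians of duplicate plates imaged at 4×.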
# NCI-H647 = system: NCI-H647
# Outline: as §1
# LCLC-103H = system: LCLC-103H
# Outline: as §1
# NCI-H2405 = system: NCI-H2405
# Outline: as §1
# NCI-H1437 = system: NCI-H1437
# Outline: as §1
# BEN = system: BEN
# Outline: as §1
# HCC-44 = system: HCC-44
# Outline: as §1
# LCLC-97TM1 = system: LCLC-97TM1
# Outline: as §1
# NCI-H727 = system: NCI-H727
# Outline: as §1
# HCC-827 = system: HCC-827
# Outline: as §1
# RERF-LC-KJ = system: RERF-LC-KJ
# Outline: as §1
# CAL-12T = system: CAL-12T
# Outline: as §1
# LXF-289 = system: LXF-289
# Outline: as §1
# 201T = system: 201T
# Outline: as §1
# NCI-H2228 = system: NCI-H2228
# Outline: as §1
# SK-LU-1 = system: SK-LU-1
# Outline: as §1
# NCI-H322M = system: NCI-H322M
# Outline: as §1
# NCI-H3122 = system: NCI-H3122
# Outline: as §1
# NCI-H2087 = system: NCI-H2087
# Outline: as §1
# NCI-H1650 = system: NCI-H1650
# Outline: as §1
smiles,measurement,setting,value
O=C(O)c1ccc(-c2c[nH]c3ncc(-c4ccccc4)cc23)cc1C1CCCC1 + CC(C)C[C@H](NC(=O)[C@H](Cc1ccccc1)NC(=O)c1cnccn1)B(O)O [Bortezomib] (partner 0.002 µM),relative viability,HOP-62; first compound 0.04 µM,1.01
same,relative viability,HOP-62; first compound 0.1265 µM,0.725
same,relative viability,HOP-62; first compound 0.4 µM,0.93
same,relative viability,HOP-62; first compound 1.265 µM,0.886
same,relative viability,NCI-H647; first compound 0.04 µM,0.896
same,relative viability,NCI-H647; first compound 0.1265 µM,1.19
same,relative viability,NCI-H647; first compound 0.4 µM,1.3
same,relative viability,NCI-H647; first compound 1.265 µM,0.772
same,relative viability,LCLC-103H; first compound 0.04 µM,1.11
same,relative viability,LCLC-103H; first compound 0.1265 µM,1.15
same,relative viability,LCLC-103H; first compound 0.4 µM,1
same,relative viability,LCLC-103H; first compound 1.265 µM,1.05
same,relative viability,NCI-H2405; first compound 0.04 µM,0.989
same,relative viability,NCI-H2405; first compound 0.1265 µM,1.03
same,relative viability,NCI-H2405; first compound 0.4 µM,0.916
same,relative viability,NCI-H2405; first compound 1.265 µM,0.819
same,relative viability,NCI-H1437; first compound 0.04 µM,0.523
same,relative viability,NCI-H1437; first compound 0.1265 µM,0.683
same,relative viability,NCI-H1437; first compound 0.4 µM,0.446
same,relative viability,NCI-H1437; first compound 1.265 µM,0.238
same,relative viability,BEN; first compound 0.04 µM,0.721
same,relative viability,BEN; first compound 0.1265 µM,0.778
same,relative viability,BEN; first compound 0.4 µM,0.907
same,relative viability,BEN; first compound 1.265 µM,0.796
same,relative viability,HCC-44; first compound 0.04 µM,0.945
same,relative viability,HCC-44; first compound 0.1265 µM,0.866
same,relative viability,HCC-44; first compound 0.4 µM,0.886
same,relative viability,HCC-44; first compound 1.265 µM,0.908
same,relative viability,LCLC-97TM1; first compound 0.04 µM,0.835
same,relative viability,LCLC-97TM1; first compound 0.1265 µM,1.03
same,relative viability,LCLC-97TM1; first compound 0.4 µM,0.763
same,relative viability,LCLC-97TM1; first compound 1.265 µM,0.403
same,relative viability,NCI-H727; first compound 0.04 µM,0.788
same,relative viability,NCI-H727; first compound 0.1265 µM,0.99
same,relative viability,NCI-H727; first compound 0.4 µM,0.906
same,relative viability,NCI-H727; first compound 1.265 µM,0.783
same,relative viability,HCC-827; first compound 0.04 µM,0.982
same,relative viability,HCC-827; first compound 0.1265 µM,1.18
same,relative viability,HCC-827; first compound 0.4 µM,1.02
same,relative viability,HCC-827; first compound 1.265 µM,0.884
same,relative viability,RERF-LC-KJ; first compound 0.04 µM,1.12
same,relative viability,RERF-LC-KJ; first compound 0.1265 µM,1.14
same,relative viability,RERF-LC-KJ; first compound 0.4 µM,1.06
same,relative viability,RERF-LC-KJ; first compound 1.265 µM,0.996
same,relative viability,CAL-12T; first compound 0.04 µM,0.911
same,relative viability,CAL-12T; first compound 0.1265 µM,1.17
same,relative viability,CAL-12T; first compound 0.4 µM,0.883
same,relative viability,CAL-12T; first compound 1.265 µM,0.792
same,relative viability,LXF-289; first compound 0.04 µM,0.969
same,relative viability,LXF-289; first compound 0.1265 µM,0.944
same,relative viability,LXF-289; first compound 0.4 µM,0.8
same,relative viability,LXF-289; first compound 1.265 µM,0.568
same,relative viability,201T; first compound 0.04 µM,1.08
same,relative viability,201T; first compound 0.1265 µM,1.08
same,relative viability,201T; first compound 0.4 µM,1.12
same,relative viability,201T; first compound 1.265 µM,1.02
same,relative viability,NCI-H2228; first compound 0.04 µM,0.908
same,relative viability,NCI-H2228; first compound 0.1265 µM,0.954
same,relative viability,NCI-H2228; first compound 0.4 µM,1.32
same,relative viability,NCI-H2228; first compound 1.265 µM,0.414
same,relative viability,SK-LU-1; first compound 0.04 µM,1.11
same,relative viability,SK-LU-1; first compound 0.1265 µM,1.17
same,relative viability,SK-LU-1; first compound 0.4 µM,1.15
same,relative viability,SK-LU-1; first compound 1.265 µM,0.693
same,relative viability,NCI-H322M; first compound 0.04 µM,1.25
same,relative viability,NCI-H322M; first compound 0.1265 µM,1.32
same,relative viability,NCI-H322M; first compound 0.4 µM,1.33
same,relative viability,NCI-H322M; first compound 1.265 µM,1.23
same,relative viability,NCI-H3122; first compound 0.04 µM,0.976
same,relative viability,NCI-H3122; first compound 0.1265 µM,1.01
same,relative viability,NCI-H3122; first compound 0.4 µM,0.984
same,relative viability,NCI-H3122; first compound 1.265 µM,0.986
same,relative viability,NCI-H2087; first compound 0.04 µM,0.963
same,relative viability,NCI-H2087; first compound 0.1265 µM,0.902
same,relative viability,NCI-H2087; first compound 0.4 µM,0.715
same,relative viability,NCI-H2087; first compound 1.265 µM,0.565
same,relative viability,NCI-H1650; first compound 0.04 µM,0.185
same,relative viability,NCI-H1650; first compound 0.1265 µM,0.208
same,relative viability,NCI-H1650; first compound 0.4 µM,0.205
same,relative viability,NCI-H1650; first compound 1.265 µM,0.178
